Where a SMILES comes first, the peptide text is derived from it.

Regarding `Nc1nnnn1-c1ccc(Cl)cc1Cl`, the logP came out at 1.62.
Then `CCCCNc1ncnc2c1ncn2C1OC(CO)C(O)C1O` (stereo not drawn), with 1.1.
Turning to `COc1ccc(C2Cc3cc(C(F)(F)F)ccc3N(CCN(C)C)C(=O)C2OC(C)=O)cc1` (stereo not drawn), the logP was determined as 4.8.
With `COc1ccc(C2Cc3cc(OCc4ccccc4)ccc3N(CCN(C)C)C(=O)C2OC(C)=O)cc1` (stereo not drawn), the logP was found to be 5.4.
Compound `Clc1ccccc1N1CCN(CCn2nc3ccccc3n2)CC1` displayed a lipophilicity (logP) of 4.
In the case of `CCSSc1ncc[nH]1`, the logP was 2.13.
For the compound `C/C(=C\CNc1ncnc2[nH]cnc12)CO`, the logP is 0.6.
On to `CCC(C)C(NC(=O)CNC(=O)C(C)NC(=O)CNC(=O)C(N)Cc1ccccc1)C(=O)O` (stereo not drawn) (H-FGAGI-OH; configuration not given here), for which the logP was -1.87.
Then `CCN(CC)CCNC(=O)c1c(C)cccc1C`, with 2.22.
Then `O=c1cc(CBr)occ1O`, with 0.61.
The value for `O=C1C=C(N2CCOCC2)CN1c1ccc(F)c(Cl)c1` was 2.2; that for `CCCCOCCCNc1[nH]cnc2ncnc1-2` was 2.22.
As for `c1ccc2c(c1)OCC(Cc1nc3ccccc3[nH]1)O2` (stereo not drawn), the logP was found to be 3.29.
Then `NC(Cc1cc(I)c(OCCc2ccc(O)cc2)c(I)c1)C(=O)O` (stereo not drawn), with 2; and `Clc1ccccc1N1CCN(CCCOn2nnc3ccccc32)CC1`, with 4.1; and `CN(C)c1cccc2nc(N)nc(N)c12`, with 1.65.
Then `Brc1cc2cccc3ccc4cccc1c4c32`, with 5.84; and `C[N+](C)([O-])CCCC(c1ccccc1)c1ccccc1`, with 1.45; and `CC(C)NC(=NC#N)NS(=O)(=O)c1cnccc1NC1CCCCC1`, with 1.53.
`CC(C)COC(=O)n1cc(F)c(=O)[nH]c1=O` returned a logP of 0.87.
The value for `CCN(CC)C(=O)[C@]1(c2ccccc2)C[C@@H]1CN` was 2.03.
With `Cc1c2ccoc2cc2oc(=O)ccc12`, the logP was 2.33.
The value for `Cc1c(C)c2cc3c(C)coc3nc2oc1=O` was 2.25; that for `Clc1cc(Cl)c(-c2cc(Cl)cc(Cl)c2Cl)c(Cl)c1` was 6.87; that for `Clc1ccccc1N1CCN(CCn2nnc3ccccc32)CC1` was 3.35.
Then `CC(C)CCCNc1[nH]cnc2ncnc1-2`, with 3.06; and `Cc1cc2ncccc2c2nc(N)n(C)c12`, with 1.98.
The compound `Cc1cccn2c1nc1ccc(N)nc12` returned a logP of 1.75.
The value for `COC1(OC)C(N2CCOCC2)=NC(=O)N1c1ccc(Cl)cc1` was 1.7; that for `CCCC(=NOCC)C1=C(O)CC2(CCC(C)CC2)OC1=O` (stereo not drawn) was 4.07.
Regarding `O=C1CCC(=O)N1c1c(Cl)cccc1Cl`, the logP amounted to 0.57.
For `COCCOCCOCCOc1ccc(C2=NC(C)(C(=O)O)CS2)c(O)c1` (stereo not drawn), the logP was found to be 1.3.
`CCC(C)C(NC(=O)C(N)CC(C)C)C(=O)O` (stereo not drawn) (H-Leu-Ile-OH; configuration not given here): the logP is -1.64.
In turn, `CC(=O)c1ccc(Cl)cc1O` came in with a logP of 2.97.
The value for `CCOc1ccc(N)c(OCC)c1` was 2.19.
Then `CCCCCCN=C=S`, with 3.98; and `Cc1coc2c(C)c3oc(=O)cc(C)c3cc12`, with 3.25; and `CCCC(=O)OCOC(=O)N(C)N=Nc1ccc(C(=O)OCC)cc1`, with 4.51.
The value for `NC(=O)Nc1cccc(O)c1` was 0.36; that for `Cc1ncc([N+](=O)[O-])n1CCN=[N+]=[N-]` was 0.76; that for `O=S(=O)(c1ccccc1)C(F)(F)F` was 2.68.
Compound `COC(=O)C(C)NP(=O)(OCC1C=CC(n2cc(C)c(=O)[nH]c2=O)O1)Oc1ccc(Cl)cc1` (stereo not drawn) yielded a logP of 1.43.
Then `OCC1OC(Oc2ccc(F)cc2)C(O)C(O)C1O` (stereo not drawn), with -0.42.
Then `Cc1ccc(CO)c(C=NNC(=O)c2cccc(Cl)c2)c1O`, with 3.83; and `CNc1ncnc2c1ncn2C1OC(CO)C(O)C1O` (stereo not drawn), with -0.52.
Then `CCC(C)C(N)C(=O)NC(CO)C(=O)NC(CC(C)C)C(=O)O` (stereo not drawn) (H-Ile-Ser-Leu-OH; configuration not given here), with -2.28; and `Fc1cncnc1`, with -0.03.
On to `N#Cc1[nH]cc(-c2ccc(Cl)cc2)c1N1CCOCC1`, for which the logP was found to be 3.5.
Then `CCOC(=O)c1cccc(N(C)C)c1`, with 3.19.
The compound `COCCOC(=O)C1=C(C)NC(C)=C(C(=O)OC(C)C)C1c1cccc2c1OCO2` (stereo not drawn) came in with a logP of 3.94.
Regarding `COc1cc(NS(C)(=O)=O)ccc1-c1cn2cccnc2n1`, the logP worked out at 0.72.
On to `COC(=O)C(C)NP(=O)(OCC1C=CC(n2cc(C)c(=O)[nH]c2=O)O1)Oc1ccc(OC)cc1` (stereo not drawn), for which the logP came to 1.09.
In turn, `CC1CC(N)CN1c1nc2c(cc1F)c(=O)c(C(=O)O)cn2-c1ccc(F)cc1F` (stereo not drawn) displayed a logP of -0.2.
The value for `COc1cc2c(Nc3cc(CC(=O)Nc4cccc(F)c4F)[nH]n3)ncnc2cc1OCCCN(CCO)CC(C)C` was 5.2; that for `Cc1c(O)c(=O)ccn1CCCOC(=O)c1cccnc1` was -0.25; that for `O=C(NP(=O)(N1CC1)N1CC1)c1ccccc1` was 0.81.
The compound `COC(=O)C(C)=CC1C(C(=O)OCc2ccccc2)C1(C)C` (stereo not drawn) returned a logP of 4.4.
Then `CCCOc1ccc(NC(=O)OCCN2CCCCC2)cc1`, with 4.2; and `CC(=O)Oc1coc(CBr)cc1=O`, with 0.51; and `C[C@]12CCC(=O)C=C1[C@@H]1C[C@@H]1[C@@H]1[C@@H]2CC[C@@]2(C)[C@H]1CC[C@@]21CCC(=O)O1`, with 3.08.
Consider `CCNc1ccncc1S(=O)(=O)NC(=NC#N)NC(C)C`, for which the logP is -0.24.
Then `O=c1cc(-c2ccccc2)[nH]n1-c1ccc(Cl)cc1`, with 2.6; and `O=C(O)CCCCCON=C(c1cccc(C(F)(F)F)c1)c1cnccn1`, with 3.52.
Then `Clc1ccc(N2CCN(CCn3nnc4ccccc43)CC2)cc1`, with 3.4; and `COC(=O)C(C)NP(=O)(OCC1C=CC(n2cc(C)c(=O)[nH]c2=O)O1)Oc1ccccc1Cl` (stereo not drawn), with 1.37.
In turn, `CC(C)(C)[N+]([O-])=Cc1cccc([N+](=O)[O-])c1` showed a logP of 1.3.
`COc1ccc(CCNCC(O)COc2ccc(-c3nc(C(C)(C)C)c[nH]3)cc2)cc1OC` (stereo not drawn) had a log partition coefficient (logP) of 4.09.
The value for `COc1ccc(C2Cc3c(C#N)cccc3N(CCN(C)C)C(=O)C2OC(C)=O)cc1` (stereo not drawn) was 3.3; that for `c1[nH]nc2c1CCC1c3n[nH]cc3CCC21` (stereo not drawn) was 0.3.
As for `CCCN(CCC)C1CCc2c(O)cccc2C1` (stereo not drawn), the logP was found to be 3.58.
Then `O=c1[nH]c2cc(Cl)ccc2c(O)c1-c1ccccc1`, with 3.5; and `O=C(CC1CCc2cc(Br)cc3[nH]c(=O)c(=O)n1c23)Nc1ccccc1` (stereo not drawn), with 2.78.
For `CC(C)CC(NC(=O)C(N)CO)C(=O)O` (stereo not drawn) (H-Ser-Leu-OH; configuration not given here), the logP is -2.49.
The value for `O=C(O)CCCCCON=C(c1ccccc1)c1ncccn1` was 2.25; that for `CC(C)NC(=S)NS(=O)(=O)c1cnccc1NC1CCCCCCC1` was 4.2.
`CC(C)(C)c1cc(O)cc(C(C)(C)C)c1` displayed a logP of 4.64.
Then `O=C(O)C1CSC(c2cc(O)ccc2O)=N1` (stereo not drawn), with 0.9; and `Cc1cccc(N2CCN(CC3CN=C(N)O3)CC2)c1` (stereo not drawn), with 1.46; and `CCNc1nc(O)nc(NC(C)(C)C)n1`, with 3.53.
Consider `CC(C)C(N)C(=O)NCC(=O)NC(Cc1ccccc1)C(=O)NC(C(=O)NC(Cc1ccccc1)C(=O)O)C(C)C` (stereo not drawn) (H-VGFVF-OH; configuration not given here), for which the logP was -0.5.
The value for `CN1CC(O)N(C(=O)Nc2ccccc2)C1=O` (stereo not drawn) was 1.44; that for `COC(=O)c1[nH]cc(-c2ccccc2C)c1N1CCOCC1` was 2.8.
Then `CN(C)CCOC(=O)c1ccc(S(C)(=O)=O)cc1`, with 0.45.
Then `CC(C)NC(=NC#N)NS(=O)(=O)c1cnccc1NC1CCCCCCCCCCC1`, with 4.51.
Consider `CCCc1nc(Nc2ccccc2OC)nc(N2CCOCC2)n1`, for which the log partition coefficient (logP) amounted to 3.59.
On to `CC(=O)OC1CCCC2(C)CCC(C(C)(C)OC(C)=O)CC12` (stereo not drawn), for which the logP was 5.06.
`CCOc1cc2ncnc(Nc3ccc(F)cc3)c2cc1OCC` registered a logP of 3.73.
Then `COc1cnc(C2=NC(C)(C(C)C)C(=O)N2)c(C(=O)O)c1` (stereo not drawn), with 0.61.
The value for `OCCN1CCN(CCn2nnc3ccccc32)CC1` was -0.05; that for `CC(C)CC(N)C(=O)NC(CC(C)C)C(=O)NC(Cc1ccc(O)cc1)C(=O)O` (stereo not drawn) (H-Leu-Leu-Tyr-OH; configuration not given here) was -1.34.
For `O=C(Cn1cnc([N+](=O)[O-])n1)NCCCO`, the logP was -1.27.
Then `O=C1CN=C(c2ccc(F)cc2)c2ccccc2N1`, with 2.38; and `OCC1OC(Oc2ccc(-c3ccccc3)cc2)C(O)C(O)C1O` (stereo not drawn), with 1.79; and `COC(=O)Nc1c(C(C)C)cccc1C(C)C`, with 2.2.
The value for `CCCCC(C)CC(O)C=CC1C(O)CC2CC(CCOCC(=O)OC)CC21` (stereo not drawn) was 4.5; that for `CC(=O)c1cc2ccc3cccc4ccc(c1)c2c34` was 4.29; that for `O=C1N=C(N2CCOCC2)CN1c1ccc(Cl)c(Cl)c1` was 1.9.
In turn, `CNc1ccc(-c2cn3cc(SC)ccc3n2)cc1` yielded a logP of 3.9.
The value for `C=CCON=C(C)c1cccc(Oc2nc(OC)cc(OC)n2)c1C(=O)OC` was 3.13.
`CC(C)C1(C)N=C(c2ncc3ccccc3c2C(=O)O)NC1=O` (stereo not drawn) gave a log partition coefficient (logP) of 1.81.
For the compound `CC(C)(C)[N+]([O-])=Cc1cc[n+]([O-])cc1`, the logP is -1.05.
The value for `Fc1ccccc1CNc1[nH]cnc2ncnc1-2` was 2.27.
The compound `O=C1CCC(c2ccc(-n3ccnc3)cc2)=NN1` came in with a logP of 0.96.
The value for `c1ccc(CCCNc2[nH]cnc3ncnc2-3)cc1` was 2.85.
For the compound `O=C1N=C(N2CCOCC2)CN1Cc1ccccc1`, the logP came out at 0.5.
Then `COCCNc1ncnc2c1ncn2C1OC(CO)C(O)C1O` (stereo not drawn), with -0.49.
On to `C=CCN(N=O)C(=O)N(CCC)CCCCC(NC(C)=O)C(=O)NCc1ccccc1` (stereo not drawn), for which the logP was determined as 2.11.
Take `Brc1cc(Br)c(-c2ccccc2)c(Br)c1`: the logP stood at 6.03.

Usually logP stands for the decadic logarithm of the partition coefficient of the neutral form, usually between octanol and water. Read a low logP as a more hydrophilic compound.

Values taken from the OPERA property sets (Mansouri et al. 2018).
